18 compounds from patent US20120277208A1 (ASTELLAS PHARMA INC., priority 2009, published 2012) can be followed below.

For assay [1], the target named is T1, recombinant human liver type GK (GST-hGK2) (Homo sapiens, UniProt P35557).
T1 construct: made in house; host or cells: E. coli BL21
T1 sequence (P35557 1-466 isoform P35557-2): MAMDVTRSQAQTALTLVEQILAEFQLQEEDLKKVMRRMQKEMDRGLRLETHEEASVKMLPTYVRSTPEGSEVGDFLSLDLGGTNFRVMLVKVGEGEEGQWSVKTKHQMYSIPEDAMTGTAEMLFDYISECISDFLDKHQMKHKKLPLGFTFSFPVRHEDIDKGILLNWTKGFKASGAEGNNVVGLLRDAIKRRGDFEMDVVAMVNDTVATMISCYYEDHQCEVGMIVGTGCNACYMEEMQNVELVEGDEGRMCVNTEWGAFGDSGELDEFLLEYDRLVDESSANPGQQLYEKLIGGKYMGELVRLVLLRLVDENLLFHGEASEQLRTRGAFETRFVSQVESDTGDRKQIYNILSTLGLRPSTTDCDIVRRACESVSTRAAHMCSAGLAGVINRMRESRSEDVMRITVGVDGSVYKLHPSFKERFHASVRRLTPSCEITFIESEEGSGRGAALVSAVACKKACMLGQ
Nature of the assay: Measurement of glucokinase (GK) activation. To be noted: 10 min; test compound final concentration of 10 μM; 5 mM glucose; 27° C.; relative to DMSO. It is filed as biochemical. On the procedure:
Test Example 1 Measurement of Glucokinase (GK) Activation
The present test was carried out in accordance with the method described in Science 301: 370-373, 2003 with partial modification, and is summarized as below.
First, cloning of GK (GenBank No. AK122876) was carried out. PCR was carried out using 5′-[…]-3′ (SEQ ID NO: 1) and 5′-[…]-3′ (SEQ ID NO: 2) as primers, and pME18S-FL3-Glucokinase isoform 2 as a template. The resulting reaction product was TA-cloned into a pGEM-T easy vector, and then digested with EcoRI and XhoI, and the fragment was ligated to a pGEX-5X-1 vector digested in the same manner. Using this plasmid DNA (pGEX-human Glucokinase 2), a recombinant human liver type GK (GST-hGK2) fused with GST (Glutathione S-transferase) was expressed in E. coli (strain BL21), and purified by Glutathione Sepharose.
The reaction of GK was carried out at 27° C. on a 96-well plate. First, 1 μL of a test compound diluted with dimethylsulfoxide (DMSO) (final concentration of 10 μM) was added to a 89 μL of an enzyme mixed liquid (25 mM HEPES pH 7.4, 25 mM KCl, 2 mM MgCl2, 1 mM ATP, 0.1% BSA, 1 mM DTT, 1 mM NADP (nicotinamide adenine dinucleotide phosphate), 2.5 U/mL glucose-6-phosphate dehydrogenase, GST-hGK2 adjusted to ΔODCont as described later to be about 0.05 to 0.10, all of which are final concentrations). Subsequently, 10 μL of a substrate solution (final concentration of 5 mM glucose) was added thereto to initiate the reaction. In order to quantify a final product NADPH, an absorbance at a wavelength of 340 nm was measured, and the GK activation (%) of the test compound was calculated from the increase (DOD) in the absorbance during the first 10 minutes after the initiation of the reaction, using the following formula.
GK activation (%)=[(ΔODTest)−(ΔODCont)]/(ΔODCont)×100
ΔODTest: ΔOD at the test compound
Further, Ex indicates Example compound Number.

Another assay deals with ICR mice. Nature of the assay: Oral glucose loading test in normal mice. It is filed as in vivo. The following applies: Mus musculus, AUC lowering rate of blood glucose, immediately before to 2 hours after glucose loading, vs solvent control, 10 mg/kg orally, ICR mice fasted overnight, glucose loading after 30 minutes, read-out: Blood glucose level lowering rate (%). As to the method: Test Example 2 Oral Glucose Loading Test in Normal Mice
The test compound was dissolved in a solvent (5% Cremophor, 5% aqueous DMSO solution), 10 mg/kg of the test compound was orally administered to ICR mice after fasting overnight, and after 30 minutes, oral glucose loading was carried out. Immediately before the administration of the test compound, immediately before the glucose loading, and 0.25, 0.5, 1, and 2 hours after the glucose loading, blood was collected and blood glucose levels were measured. An AUC lowering rate (%) of the blood glucose levels from immediately before the glucose loading to 2 hours after the glucose loading with respect to that of the solvent control was calculated.

In the case of `COC[C@H](C)Oc1cc(Oc2ccc(-c3nc(C(N)=O)no3)nc2)cc(C(=O)Nc2ccn(C)n2)c1` [Ex 1], the activation at 10 µM in assay [1] came out at 295%. Further, the inhibition in vivo at 10 mg/kg in the assay on ICR mice came out at 37%.
`CNC(=O)c1noc(-c2ccc(Oc3cc(OC(C)C)cc(C(=O)Nc4ccn(C)n4)c3)cn2)n1` [Ex 2]: the activation at 10 µM in assay [1] came to 338%. Besides, the inhibition in vivo at 10 mg/kg with ICR mice turned out to be 59%.
With `CNC(=O)c1nnc(-c2ccc(Oc3cc(OC(C)C)cc(C(=O)Nc4ccn(C)n4)c3)cn2)o1` [Ex 3], the activation at 10 µM in assay [1] is 380%. The inhibition in vivo at 10 mg/kg in the assay on ICR mice was found to be 64%.
For the compound `CC(C)Oc1cc(Oc2ccc(-c3nc(C(N)=O)no3)nc2)cc(C(=O)Nc2ccn(C)n2)c1` [Ex 9], the activation at 10 µM in assay [1] amounted to 319%. The inhibition in vivo at 10 mg/kg in the assay on ICR mice was found to be 46%.
In the same order, the values of `CC(C)Oc1cc(Oc2ccc(-c3nc(C(=O)N(C)C)no3)nc2)cc(C(=O)Nc2ccn(C)n2)c1` [Ex 10] are 380% and 61%.
As to `CC(C)Oc1cc(Oc2cnc(N(CC3CC3)C(=O)C3CCOCC3)cn2)cc(C(=O)Nc2ccn(C)n2)c1` [Ex 23], the activation at 10 µM in assay [1] was 347%. Also, in the assay on ICR mice, the inhibition in vivo at 10 mg/kg was determined as 52%.
As to `C[C@@H](CO)Oc1cc(Oc2cnc(N(CC3CC3)C(=O)C3CCOCC3)cn2)cc(C(=O)Nc2ccn(C)n2)c1` [Ex 24], the activation at 10 µM in assay [1] is 269%. Also, the inhibition in vivo at 10 mg/kg in the assay on ICR mice came to 49%.
For the compound `COC[C@H](C)Oc1cc(Oc2cnc(N(CC3CC3)C(=O)CN(C)C)cn2)cc(C(=O)Nc2ccn(C)n2)c1` [Ex 29], the activation at 10 µM in assay [1] turned out to be 287%. Besides, in the assay with ICR mice, the inhibition in vivo at 10 mg/kg worked out at 49%.
Take `CC(C)Oc1cc(Oc2cnc(-c3noc(C(=O)N(C)C)n3)cn2)cc(C(=O)Nc2ccn(C)n2)c1` [Example 67]: in assay [1], the activation at 10 µM turned out to be 498%. In addition, the inhibition in vivo at 10 mg/kg with ICR mice was 57%.
As for `CC(C)Oc1cc(Oc2cnc(N(CC3CC3)C(=O)N3CCNC3=O)cn2)cc(C(=O)Nc2ccn(C)n2)c1` [Example 74], the activation at 10 µM in assay [1] is 298%. For the same compound, the inhibition in vivo at 10 mg/kg with ICR mice was determined as 45%.
In the case of `CC(C)Oc1cc(Oc2cnc(-c3nnc(C(=O)N(C)C)o3)cn2)cc(C(=O)Nc2ccn(C)n2)c1` [Example 98], the activation at 10 µM in assay [1] amounted to 498%. In the assay on ICR mice, the inhibition in vivo at 10 mg/kg was 54%.
On to `CC(=O)N(CC1CC1)c1cc(Oc2cnc(N(CC3CC3)C(=O)C3CCOCC3)cn2)cc(C(=O)Nc2ccn(C)n2)c1` [Example 101], for which, in assay [1], the activation at 10 µM worked out at 345%. For the same compound, the inhibition in vivo at 10 mg/kg in the assay on ICR mice was 48%.
For `COCCOCC(=O)N(CC1CC1)c1cnc(Oc2cc(OC(C)C)cc(C(=O)Nc3ccn(C)n3)c2)cn1` [Example 119] the same measures were 376% and 40%.
As to `COC[C@H](C)Oc1cc(Oc2ccc(-c3noc(C(=O)N(C)C)n3)nc2)cc(C(=O)Nc2ccn(C)n2)c1` [Example 130], the activation at 10 µM in assay [1] came out at 502%. Further, in the assay on ICR mice, the inhibition in vivo at 10 mg/kg stood at 65%.
In the case of `CNC(=O)c1noc(-c2cnc(Oc3cc(OC(C)C)cc(C(=O)Nc4ccn(C)n4)c3)cn2)n1` [Example 138], the activation at 10 µM in assay [1] is 316%. In the assay on ICR mice, the inhibition in vivo at 10 mg/kg is 61%.
As to `COCCOCC(=O)N(CC1CC1)c1cnc(Oc2cc(O[C@@H](C)CO)cc(C(=O)Nc3ccn(C)n3)c2)cn1` [Example 156, 3-[(5-{(cyclopropylmethyl)[(2-methoxyethoxy)acetyl]amino}pyrazin-2-yl)oxy]-5-{[(2S)-1-hydroxypropan-2-yl]oxy}-N-(1-methyl-1H-pyrazol-3-yl)benzamide], the activation at 10 µM in assay [1] came out at 237%. Moreover, the inhibition in vivo at 10 mg/kg with ICR mice came out at 18%.
For the compound `C[C@@H](CO)Oc1cc(Oc2cnc(N(CC3CC3)C(=O)[C@H]3CCCO3)cn2)cc(C(=O)Nc2ccn(C)n2)c1` [Example 158], the activation at 10 µM in assay [1] was 237%. Further, in the assay with ICR mice, the inhibition in vivo at 10 mg/kg was determined as 29%.
Take `C[C@@H](CO)Oc1cc(Oc2ccc(-c3nc(C(N)=O)no3)nc2)cc(C(=O)Nc2ccn(C)n2)c1` [Example 162]: in assay [1], the activation at 10 µM was found to be 306%. In the assay with ICR mice, the inhibition in vivo at 10 mg/kg is 25%.
